Legend:
Jurkat/Bcl-xL cells = experiment: Cell death in Bcl-xL overexpressing Jurkat cells (MTS, PI, sub-G1, FAM-VAD-fmk); format: cell-based; settings: for sub-G1 DNA: 100 μM BH3I-1 or 30 μM BH3I-2; for dose at which Bcl-xL overexpression gave no protection / doses from which Bcl-xL overexpression provided protection: 48 hr, MTS or PI
Experimental: If BH3Is act through inhibiting the function of anti-apoptotic members of Bcl-2 family, overexpression of Bcl-xL should provide protection against BH3Is, which can be overcome by increased amount of BH3Is. Furthermore, Bcl-xL overexpressing cells. should still undergo apoptosis when treated with a high enough dose of a BH3I to overcome the protection by Bcl-xL. To test this theory, Jurkat/Bcl-xL cells were treated with BH3I-1 and BH3I-2 for 48 hr. Cell death was determined using the MTS assay (FIG. 9A) or PI staining (FIG. 9B). Overexpression of Bcl-xL provided protection for Jurkat cells from lower doses of BH3Is (up to 40 μM of BH3I-2 and up to 100 μM of BH3I-1). Overexpression of Bcl-xL, however, gave no protection after treatment with 80 μM of BH3I-2 or 200 μM of BH3I-1. […] Caspases were activated in Hoechst-positive dying cells following treatment with high doses of BH3Is.

Bcl-xL = biological target: T1, Bcl-xL (Homo sapiens, UniProt Q07817, DEL45-84); experiment: NMR titration of Bcl-xL; format: binding; settings: for relative order of affinities, NMR titrations: rank order
T1 construct: His6 (C); made in house
Experimental: To verify this conclusion, NMR titrations of Bcl-xL with BH3I-1s were performed and their Ki values were determined (FIG. 4). […] The BH3I-1s Ki values obtained by the NMR approach agree with the results of both pulldown and SELDI analyses. Therefore, the order of affinities of BH3Is is: BH312′>BH3I-2>BH3I-2″>BH3I-1>BH3I-1′>BH3I-1″>BH3I-1′″.
NMR titration was used to examine whether BH3Iinteracts with the binding pocket of Bcl-xL in a manner similar to Bak BH3 peptide (Hajduk et al., Science 278:497-499, 1997).
Next, changes in Bcl-xL structure upon addition of increasing amounts of BH3Is were determined. Each of the BH3Is induced significant changes in the Bcl-xL structure. The compounds targeted the hydrophobic cleft formed by the BH1, BH2, and BH3 domains on the surface of the Bcl-xL protein, and primarily bound to the area formed by BH1 and BH2 domains.

HeLa cells, Jurkat cells = experiment: Cytochrome c release and mitochondrial membrane potential; format: cell-based; settings: immunostaining and fractionation, 48 hr
Experimental: FIG. 6D is a set of images of cells showing cytochrome c release induced by BH3Is. HeLa cells were treated with 100 μM BH3I-1 for 48 hr and were then stained with Hoechst (a) or cytochrome c antibody (b). The arrows indicate the position of an apoptotic cell.
FIG. 6E is an image of a Western blot analysis of cytochrome c release from Jurkat cells treated with BH3I-1 (100 μM) or BH3I-2 (50 μM) for 48 hr. Cells were fractionated and soluble (S) and heavy membrane (M) fractions were subjected to Western blot analysis using cytochrome c (Pharmingen) and VDAC (Calbiochem) antibodies.
Next, the role of BH3 Is in inducing the release of cytochrome c from mitochondria was examined.

[1] = biological target: T2, U2AF35 / U2AF65 interaction (Homo sapiens, UniProt Q01081); experiment: Pulldown of splicing factors (specificity control); format: binding; settings: selectivity control
T2 construct: made in house; host or cells: U2AF65: TNT wheat germ lysate (Promega)
T2 sequence (Q01081 1-240): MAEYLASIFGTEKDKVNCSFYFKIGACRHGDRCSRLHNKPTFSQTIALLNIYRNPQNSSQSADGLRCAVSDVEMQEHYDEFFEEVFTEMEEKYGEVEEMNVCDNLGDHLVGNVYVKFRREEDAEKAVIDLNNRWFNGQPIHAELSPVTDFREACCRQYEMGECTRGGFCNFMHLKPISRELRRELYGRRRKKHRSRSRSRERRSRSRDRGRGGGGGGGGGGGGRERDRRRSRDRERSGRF
Experimental: Next, it was determined whether BH3Is could disrupt the heterodimerization of Bcl-xL with pro-apoptotic proteins from the Bcl-2 family, such as truncated Bid (tBid). Truncation of Bid by caspase-8 activates Bid and dramatically increases its affinity towards anti-apoptotic Bcl-2 family members (Li et al., Cell 94:491-501, 1998). To perform this study, in vitro translation of tBid or U2AF^65 (control) was performed using TNT® Coupled Reticulocyte and Wheat Germ Lysate Systems (Promega) respectively. Bcl-xL, U2AF^35 (control) or corresponding amounts of original Ni-NTA agarose beads (blank) were pre-incubated with the BH3 inhibitors or peptide in 100 μl of PBS for 30 min at 25° C. Then 1 μl of ^35S-labeled tBID or U2AF^65 was added and incubation was continued for 2 hr at 4° C. The samples were subjected to SDS-PAGE, coomassie blue staining and autoradiography.
To determine the specificity of BH3Is, their ability to inhibit other protein-protein interactions was tested using the pulldown assay described above and the splicing factors U2AF^35 and U2AF^65 (Zhang et al, Proc. Natl. Acad. Sci. USA 89:8769-73, 1992). […] BH3Is (80 μM) also had no effect on the interaction between the Apaf-1 CARD domain fragment and caspase-9 in the SELDI assay.

FL5.12/Bcl-xL cells = experiment: Cell death upon IL-3 deprivation in Bcl-xL overexpressing cells; format: cell-based; settings: PI staining
Description: This effect could be overcome by a higher dose of BH3Is (FIG. 9E). Inactivation of Bcl-xL by BH3Is in FL5.12/Bcl-xL cells was detected as an increase in cell death following IL-3 deprivation.

T1 sequence (Q07817 with tags, fused parts or gaps DEL45-84 limits assumed): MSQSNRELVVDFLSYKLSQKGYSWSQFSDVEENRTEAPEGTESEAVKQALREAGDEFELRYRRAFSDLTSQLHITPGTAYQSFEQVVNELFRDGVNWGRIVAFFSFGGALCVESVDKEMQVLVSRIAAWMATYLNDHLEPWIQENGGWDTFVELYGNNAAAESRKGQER

CC(C)C(C(=O)O)N1C(=O)C(=Cc2ccc(Br)cc2)SC1=S (stereo in doubt) [BH3I-1]
sub-G1 DNA (Jurkat/Bcl-xL cells): induced the appearance of sub-GI DNA | dose at which Bcl-xL overexpression gave no protection (Jurkat/Bcl-xL cells): 200 µM | doses from which Bcl-xL overexpression provided protection (Jurkat/Bcl-xL cells): up to 100 μM | NOE magnetization transfer to Bcl-xL residues Y65 and F107 (Bcl-xL): direct contact between BH3I-1 and these residues | NMR derived Ki value, compared (Bcl-xL; compared with fluorescence polarization Ki of BH3I-2): lower than the fluorescence polarization assay derived Ki value of BH3I-2 | relative order of affinities, NMR titrations (Bcl-xL): BH3I-1>BH3I-1′>BH3I-1″>BH3I-1′″ | cytochrome c release (HeLa cells, Jurkat cells): induced cytochrome c release | effect on interaction between splicing factors [1]: Neither BH3I-1 nor BH3I-2 affected the interaction | cytotoxicity upon IL-3 deprivation (FL5.12/Bcl-xL cells): significantly increased upon IL-3 deprivation

CC(C)C(C(=O)O)N1C(=O)/C(=C/c2ccccc2)SC1=S (stereo not shown) [BH3I-1″]
relative order of affinities, NMR titrations (Bcl-xL): BH3I-1>BH3I-1′>BH3I-1″>BH3I-1′″

O=C(Nc1cc(S(=O)(=O)c2ccc(Cl)cc2)ccc1Cl)c1cc(Cl)cc(Br)c1O [BH3I-2]
sub-G1 DNA (Jurkat/Bcl-xL cells): induced the appearance of sub-GI DNA | dose at which Bcl-xL overexpression gave no protection (Jurkat/Bcl-xL cells): 80 µM | doses from which Bcl-xL overexpression provided protection (Jurkat/Bcl-xL cells): up to 40 μM | cytochrome c release (HeLa cells, Jurkat cells): induced cytochrome c release | effect on interaction between splicing factors [1]: Neither BH3I-1 nor BH3I-2 affected the interaction | cytotoxicity upon IL-3 deprivation (FL5.12/Bcl-xL cells): significantly increased upon IL-3 deprivation
